Source: the supplement of paper PMC7840683
± gives the standard deviation of the averaged measurements.

Test system: HepaRG
Assay: LDH release cytotoxicity, % of total lysis control; higher = more cytotoxic
Conditions: 48 h
Method in brief: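 Eight-point half-log series of test chemicals, the highest at 100 µM, were given in duplicate for 48 h to single-lot HepaRG cells on collagen I-coated 96-well plates in serum-free induction medium with 0.5% DMSO. A Tecan Safire read resorufin fluorescence from CytoTox-ONE as a measure of LDH in 50 µL spent medium, with 0.1% Triton X in total lysis wells. Percent cytotoxicity was normalized to on-plate vehicle and total lysis controls and averaged over the duplicates.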

CC(=O)NC1(c2cccc(F)c2)CCN(CCC2(c3ccc(Cl)c(Cl)c3)CN(c3ccccc3)C(=O)CO2)CC1 (stereo unspecified) showed an LDH release cytotoxicity (0.03162 µM) of -0.672 ± 1.2%, an LDH release cytotoxicity (0.1 µM) of -0.672 ± 0.82% and an LDH release cytotoxicity (0.3162278 µM) of -0.643 ± 0.17%. It also gave an LDH release cytotoxicity (1 µM) of -0.552 ± 0.44%, an LDH release cytotoxicity (3.16228 µM) of -0.767 ± 0.35% and an LDH release cytotoxicity (10 µM) of -0.38 ± 0.15%. For the same molecule, the LDH release cytotoxicity (31.6228 µM) was 0.499 ± 0.37% and the LDH release cytotoxicity (100 µM) was 3.41 ± 1.2%.
With CC(C)(O)c1ccc(CNC(=O)c2cccnc2Oc2ccc3nonc3c2)cc1 the LDH release cytotoxicity (0.03162 µM) was -0.138 ± 0.4%, the LDH release cytotoxicity (0.1 µM) was -0.0235 ± 1.2% and the LDH release cytotoxicity (0.3162278 µM) was -1.43 ± 0.089%. It also gave an LDH release cytotoxicity (1 µM) of -1.1 ± 0.77%, an LDH release cytotoxicity (3.16228 µM) of -0.724 ± 0.6% and an LDH release cytotoxicity (10 µM) of -0.975 ± 0.052%. The LDH release cytotoxicity (31.6228 µM) was -1.98 ± 0.84% and the LDH release cytotoxicity (100 µM) was -2.05 ± 0.18%.
CC(C)(O)c1coc(S(=O)(=O)NC(=O)Nc2c3c(cc4c2CCC4)CCC3)c1 showed an LDH release cytotoxicity (0.03162 µM) of -0.467 ± 0.54%, an LDH release cytotoxicity (0.1 µM) of -0.342 ± 0.93% and an LDH release cytotoxicity (0.3162278 µM) of -0.339 ± 0.74%. It also gave an LDH release cytotoxicity (1 µM) of 0.236 ± 0.21%, an LDH release cytotoxicity (3.16228 µM) of 0.788 ± 0.39% and an LDH release cytotoxicity (10 µM) of 0.179 ± 0.27%. It also gave an LDH release cytotoxicity (31.6228 µM) of 0.394 ± 0.043% and an LDH release cytotoxicity (100 µM) of 1.465 ± 0.0083%.
Molecule CC(C)(O)c1cnn2c(-c3ccc(F)c(-c4c(F)cccc4C#N)c3)cnc2n1 has an LDH release cytotoxicity (0.03162 µM) of -0.882 ± 0.92%, an LDH release cytotoxicity (0.1 µM) of -1.19 ± 0.31% and an LDH release cytotoxicity (0.3162278 µM) of -1.7 ± 0.43%. It also gave an LDH release cytotoxicity (1 µM) of -1.5 ± 1.5%, an LDH release cytotoxicity (3.16228 µM) of -1.51 ± 0.51% and an LDH release cytotoxicity (10 µM) of -1.39 ± 0.59%. It also gave an LDH release cytotoxicity (31.6228 µM) of 1.16 ± 0.29% and an LDH release cytotoxicity (100 µM) of 8.979 ± 0.087%.
Molecule CC(C)c1cccc(C(C)C)c1NC(=O)NS(=O)(=O)c1cc(C(C)(C)O)co1 has an LDH release cytotoxicity (0.03162 µM) of 0.635 ± 1.6%, an LDH release cytotoxicity (0.1 µM) of 0.0343 ± 1.8% and an LDH release cytotoxicity (0.3162278 µM) of -0.878 ± 0.1%. For the same molecule, the LDH release cytotoxicity (1 µM) was -1.57 ± 0.35%, the LDH release cytotoxicity (3.16228 µM) was -1.32 ± 0.93% and the LDH release cytotoxicity (10 µM) was -1.29 ± 0.37%. The LDH release cytotoxicity (31.6228 µM) was -1.24 ± 1.1% and the LDH release cytotoxicity (100 µM) was -0.335 ± 0.29%.
Molecule CC(C)CCCCCCCOC(=O)c1ccccc1C(=O)OCCCCCCCC(C)C has an LDH release cytotoxicity (0.03162 µM) of -1.32 ± 0.57%, an LDH release cytotoxicity (0.1 µM) of -1.15 ± 0.18% and an LDH release cytotoxicity (0.3162278 µM) of -1.36 ± 0.46%. For the same molecule, the LDH release cytotoxicity (1 µM) was -1.26 ± 0.61%, the LDH release cytotoxicity (3.16228 µM) was -0.979 ± 0.44% and the LDH release cytotoxicity (10 µM) was -0.985 ± 0.6%. It also gave an LDH release cytotoxicity (31.6228 µM) of -0.631 ± 0.57% and an LDH release cytotoxicity (100 µM) of 0.487 ± 0.66%.
CC(Cc1ccc(OCC(=O)O)cc1)NCC(O)c1csc(C(F)(F)F)n1 (stereo unspecified) was tested, and the LDH release cytotoxicity (0.03162 µM) was -1.76 ± 1.8%, the LDH release cytotoxicity (0.1 µM) was -2.85 ± 0.47% and the LDH release cytotoxicity (0.3162278 µM) was -1.56 ± 0.35%. It also gave an LDH release cytotoxicity (1 µM) of -1.12 ± 0.24%, an LDH release cytotoxicity (3.16228 µM) of -1.22 ± 0.57% and an LDH release cytotoxicity (10 µM) of -0.599 ± 0.77%. For the same molecule, the LDH release cytotoxicity (31.6228 µM) was 0.839 ± 2.3% and the LDH release cytotoxicity (100 µM) was 0.309 ± 0.77%.
In the case of Cc1nc(C)nc(N2CC(C)N(c3ccnc(C(C)O)n3)C(C)C2)n1 (stereo unspecified), the LDH release cytotoxicity (0.01581 µM) is reported as -1.17 ± 0.94%, the LDH release cytotoxicity (0.05 µM) is reported as -0.963 ± 0.92% and the LDH release cytotoxicity (0.1581139 µM) is reported as -1.7 ± 1%. For the same molecule, the LDH release cytotoxicity (0.5 µM) was -1.95 ± 0.69%, the LDH release cytotoxicity (1.5811388 µM) was -0.835 ± 0.61% and the LDH release cytotoxicity (5 µM) was -1.01 ± 0.15%. The LDH release cytotoxicity (15.8114 µM) was -0.652 ± 0.091% and the LDH release cytotoxicity (50 µM) was 0.767 ± 0.63%.
In the case of Cc1c(-c2cccnc2)c2ccccc2n1CCCCC(=O)O, the LDH release cytotoxicity (0.03162 µM) is reported as -1.92 ± 0.15%, the LDH release cytotoxicity (0.1 µM) is reported as -0.948 ± 0.94% and the LDH release cytotoxicity (0.3162278 µM) is reported as -2.28 ± 1.1%. The LDH release cytotoxicity (1 µM) was -1.9 ± 1.2%, the LDH release cytotoxicity (3.16228 µM) was -1.67 ± 3.2% and the LDH release cytotoxicity (10 µM) was -1.54 ± 2.1%. The LDH release cytotoxicity (31.6228 µM) was -1.64 ± 0.83% and the LDH release cytotoxicity (100 µM) was 4.56 ± 1.8%.
Cc1[nH]nc2c1N=C(c1ccccc1Cl)c1cc([N+](=O)[O-])ccc1N2 gave an LDH release cytotoxicity (0.03162 µM) of -0.496 ± 0.19%, an LDH release cytotoxicity (0.1 µM) of -1.12 ± 0.7% and an LDH release cytotoxicity (0.3162278 µM) of -0.522 ± 0.35%. For the same molecule, the LDH release cytotoxicity (1 µM) was 2.66 ± 0.69%, the LDH release cytotoxicity (3.16228 µM) was 5.42 ± 0.45% and the LDH release cytotoxicity (10 µM) was 4.54 ± 0.36%. The LDH release cytotoxicity (31.6228 µM) was 7.8 ± 1.1% and the LDH release cytotoxicity (100 µM) was 40.5 ± 3.8%.
Cc1cc(CCN2CCN(c3nsc4ccccc34)CC2)cc2c1NC(=O)CC2(C)C was tested, and the LDH release cytotoxicity (0.03162 µM) was -0.898 ± 0.3%, the LDH release cytotoxicity (0.1 µM) was -1.13 ± 1.4% and the LDH release cytotoxicity (0.3162278 µM) was -0.946 ± 0.34%. It also gave an LDH release cytotoxicity (1 µM) of -0.828 ± 0.57%, an LDH release cytotoxicity (3.16228 µM) of -0.925 ± 0.38% and an LDH release cytotoxicity (10 µM) of -1.14 ± 0.57%. The LDH release cytotoxicity (31.6228 µM) was -0.566 ± 0.6% and the LDH release cytotoxicity (100 µM) was -0.469 ± 0.49%.
Molecule Cc1cc2c(cc1C(F)(F)F)N(C(=O)Nc1ccc(Oc3cccnc3C)nc1)CC2 has an LDH release cytotoxicity (0.0295673 µM) of -7.63 ± 1.1%, an LDH release cytotoxicity (0.0935 µM) of -7.9 ± 0.54% and an LDH release cytotoxicity (0.295673 µM) of -7.01 ± 1.2%. The LDH release cytotoxicity (0.935 µM) was -8.47 ± 0.3%, the LDH release cytotoxicity (2.95673 µM) was -7.66 ± 0.24% and the LDH release cytotoxicity (9.35 µM) was -6.19 ± 1%. It also gave an LDH release cytotoxicity (29.5673 µM) of 68.937 ± 0.005% and an LDH release cytotoxicity (93.5 µM) of 72.5 ± 1.1%.
Molecule Cc1ccc2oc(CN(Cc3ccccc3)C(=O)Nc3c(F)cc(F)cc3F)c(-c3ccc(Cl)cc3)c2c1 has an LDH release cytotoxicity (0.0279862 µM) of -1.59 ± 1.2%, an LDH release cytotoxicity (0.0885 µM) of -1.08 ± 0.43% and an LDH release cytotoxicity (0.279862 µM) of -1.56 ± 0.098%. It also gave an LDH release cytotoxicity (0.885 µM) of -1.22 ± 0.62%, an LDH release cytotoxicity (2.7986157 µM) of -1.44 ± 0.12% and an LDH release cytotoxicity (8.85 µM) of -1.09 ± 0.59%. The LDH release cytotoxicity (27.9862 µM) was -0.962 ± 0.17% and the LDH release cytotoxicity (88.5 µM) was 2.85 ± 1.8%.
With Cc1nc(-c2ccccn2)ncc1C(=O)Nn1cc(C)c2cc(F)ccc21 the LDH release cytotoxicity (0.0295673 µM) was -0.89 ± 0.73%, the LDH release cytotoxicity (0.0935 µM) was -1.26 ± 0.34% and the LDH release cytotoxicity (0.295673 µM) was -0.0753 ± 0.68%. The LDH release cytotoxicity (0.935 µM) was -1.71 ± 0.6%, the LDH release cytotoxicity (2.95673 µM) was -2.8 ± 0.042% and the LDH release cytotoxicity (9.35 µM) was -2.48 ± 0.043%. The LDH release cytotoxicity (29.5673 µM) was -2.73 ± 0.47% and the LDH release cytotoxicity (93.5 µM) was -1.5 ± 0.84%.
Cc1nc(-c2ccc3c(c2)CCN(CCC2CCC(NC(=O)C=Cc4ccc(F)cc4)CC2)CC3)no1 (stereo unspecified) showed an LDH release cytotoxicity (0.03162 µM) of 0.287 ± 2.3%, an LDH release cytotoxicity (0.1 µM) of -0.381 ± 0.15% and an LDH release cytotoxicity (0.3162278 µM) of -0.128 ± 1.3%. For the same molecule, the LDH release cytotoxicity (1 µM) was -0.7917 ± 0.0065%, the LDH release cytotoxicity (3.16228 µM) was -0.696 ± 0.47% and the LDH release cytotoxicity (10 µM) was -0.292 ± 0.19%. It also gave an LDH release cytotoxicity (31.6228 µM) of -0.793 ± 0.21% and an LDH release cytotoxicity (100 µM) of -0.791 ± 0.54%.
Molecule Cc1nccn1-c1ccc(Sc2cccc(C3(C(N)=O)CCOCC3)c2)cc1 has an LDH release cytotoxicity (0.03162 µM) of -2.79 ± 0.052%, an LDH release cytotoxicity (0.1 µM) of -3.28 ± 1.4% and an LDH release cytotoxicity (0.3162278 µM) of -2.87 ± 1%. The LDH release cytotoxicity (1 µM) was -3.4 ± 0.34%, the LDH release cytotoxicity (3.16228 µM) was -2.44 ± 0.034% and the LDH release cytotoxicity (10 µM) was 7.65 ± 1.9%. The LDH release cytotoxicity (31.6228 µM) was 31.9 ± 0.88% and the LDH release cytotoxicity (100 µM) was 42.52 ± 0.32%.
CCC(=CC(N=O)C(N)=O)C(C)[N+](=O)[O-] (stereo unspecified) was tested, and the LDH release cytotoxicity (0.03162 µM) was -0.841 ± 0.13%, the LDH release cytotoxicity (0.1 µM) was -1.13 ± 0.46% and the LDH release cytotoxicity (0.3162278 µM) was -0.143 ± 1%. The LDH release cytotoxicity (1 µM) was -0.487 ± 0.72%, the LDH release cytotoxicity (3.16228 µM) was -0.165 ± 0.14% and the LDH release cytotoxicity (10 µM) was 0.0592 ± 0.5%. For the same molecule, the LDH release cytotoxicity (31.6228 µM) was 0.411 ± 0.23% and the LDH release cytotoxicity (100 µM) was 1.12 ± 0.8%.
